The results in this text go back to ChEMBL document CHEMBL5260837, “Recent advances in small molecule based cancer immunotherapy” (Eur J Med Chem, 2018).

In data set [1] the target is T1, Arginase-2, mitochondrial (Homo sapiens, UniProt P78540).
T1 sequence (P78540 whole entry): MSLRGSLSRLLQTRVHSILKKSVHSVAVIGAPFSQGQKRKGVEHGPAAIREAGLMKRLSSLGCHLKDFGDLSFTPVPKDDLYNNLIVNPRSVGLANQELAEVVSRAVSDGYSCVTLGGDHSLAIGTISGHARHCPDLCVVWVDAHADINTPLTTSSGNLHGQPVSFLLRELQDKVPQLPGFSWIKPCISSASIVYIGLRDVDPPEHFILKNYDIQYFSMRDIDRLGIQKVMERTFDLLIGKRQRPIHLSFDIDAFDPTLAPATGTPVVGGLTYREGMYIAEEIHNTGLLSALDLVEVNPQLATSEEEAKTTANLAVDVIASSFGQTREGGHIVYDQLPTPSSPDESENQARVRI
The experiment in a line: Competitive inhibition of human ARG2.

Data set [2] addresses Indoleamine 2,3-dioxygenase 1 (Homo sapiens, UniProt P14902). The experiment in a line: Inhibition of human IDO1.
A further data set relates to Splenocyte. Nature of the data set: Antiproliferative activity in mouse splenocyte assessed as inhibition of cell proliferation incubated for 72 hrs by MTT assay. In kind it is functional. Also on record: scale not given: the % may be the effect or the level left. On the technique in general: Tetrazolium dyes change colour on reduction, which living cells bring about.

The target of data set [3] is Programmed cell death protein 1/Programmed cell death 1 ligand 1 (Homo sapiens, UniProt Q15116+Q9NZQ7). Nature of the data set: Inhibition of PD-1/PD-L1 interaction (unknown origin) incubated for 24 hrs by HTRF assay. It counts as protein-complex assay.
For data set [4], the target named is T2, Ectonucleoside triphosphate diphosphohydrolase 1 (Homo sapiens, UniProt P49961).
T2 sequence (P49961 whole entry): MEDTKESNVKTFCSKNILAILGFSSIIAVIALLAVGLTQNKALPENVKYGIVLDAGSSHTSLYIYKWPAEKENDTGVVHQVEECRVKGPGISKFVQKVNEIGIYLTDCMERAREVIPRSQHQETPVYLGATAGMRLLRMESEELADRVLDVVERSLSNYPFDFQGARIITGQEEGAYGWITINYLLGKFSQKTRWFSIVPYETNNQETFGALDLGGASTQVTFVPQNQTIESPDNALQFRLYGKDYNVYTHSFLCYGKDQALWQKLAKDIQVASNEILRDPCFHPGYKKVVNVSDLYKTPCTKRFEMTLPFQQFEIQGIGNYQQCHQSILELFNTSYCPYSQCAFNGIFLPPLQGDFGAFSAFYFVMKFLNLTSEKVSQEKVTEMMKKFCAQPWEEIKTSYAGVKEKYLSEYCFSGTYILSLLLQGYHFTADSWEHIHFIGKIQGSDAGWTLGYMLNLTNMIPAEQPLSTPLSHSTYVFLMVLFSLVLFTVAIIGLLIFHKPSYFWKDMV
Nature of the data set: Inhibition of human NTPDase1.

The target of the next data set is T3, Arginase-1 (Homo sapiens, UniProt P05089).
T3 sequence (P05089 whole entry): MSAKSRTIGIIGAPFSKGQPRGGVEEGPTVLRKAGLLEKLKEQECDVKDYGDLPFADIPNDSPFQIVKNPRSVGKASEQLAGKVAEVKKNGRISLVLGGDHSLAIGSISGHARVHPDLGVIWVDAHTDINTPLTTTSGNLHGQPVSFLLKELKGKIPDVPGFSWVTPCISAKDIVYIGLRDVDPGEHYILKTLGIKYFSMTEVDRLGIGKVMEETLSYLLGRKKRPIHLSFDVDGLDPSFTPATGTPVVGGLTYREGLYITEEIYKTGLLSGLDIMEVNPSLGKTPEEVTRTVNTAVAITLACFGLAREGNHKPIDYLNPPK
Nature of the data set: Inhibition of human ARG1.

The test system of the next data set is MIA PaCa-2. Nature of the data set: Antiproliferative activity against human MIA PaCa-2 cells.
Data set [5] concerns the target C-X-C chemokine receptor type 4 (Homo sapiens, UniProt P61073). The experiment in a line: Antagonist activity at CXCR4 receptor in human MIA PaCa-2 cells assessed as reduction in forskolin-stimulated inhibition of cAMP production. It counts as cell-based. In general terms: Changes in cAMP serve as a functional read-out for many G protein-coupled receptors.
Data set [6] can be described thus: Half life in mouse at 2000 mg/kg. In kind it is ADME, organism-based. The settings on record: in vivo.
Another data set has as its target T4, Toll-like receptor 8 (Homo sapiens, UniProt Q9NR97).
T4 sequence (Q9NR97 whole entry): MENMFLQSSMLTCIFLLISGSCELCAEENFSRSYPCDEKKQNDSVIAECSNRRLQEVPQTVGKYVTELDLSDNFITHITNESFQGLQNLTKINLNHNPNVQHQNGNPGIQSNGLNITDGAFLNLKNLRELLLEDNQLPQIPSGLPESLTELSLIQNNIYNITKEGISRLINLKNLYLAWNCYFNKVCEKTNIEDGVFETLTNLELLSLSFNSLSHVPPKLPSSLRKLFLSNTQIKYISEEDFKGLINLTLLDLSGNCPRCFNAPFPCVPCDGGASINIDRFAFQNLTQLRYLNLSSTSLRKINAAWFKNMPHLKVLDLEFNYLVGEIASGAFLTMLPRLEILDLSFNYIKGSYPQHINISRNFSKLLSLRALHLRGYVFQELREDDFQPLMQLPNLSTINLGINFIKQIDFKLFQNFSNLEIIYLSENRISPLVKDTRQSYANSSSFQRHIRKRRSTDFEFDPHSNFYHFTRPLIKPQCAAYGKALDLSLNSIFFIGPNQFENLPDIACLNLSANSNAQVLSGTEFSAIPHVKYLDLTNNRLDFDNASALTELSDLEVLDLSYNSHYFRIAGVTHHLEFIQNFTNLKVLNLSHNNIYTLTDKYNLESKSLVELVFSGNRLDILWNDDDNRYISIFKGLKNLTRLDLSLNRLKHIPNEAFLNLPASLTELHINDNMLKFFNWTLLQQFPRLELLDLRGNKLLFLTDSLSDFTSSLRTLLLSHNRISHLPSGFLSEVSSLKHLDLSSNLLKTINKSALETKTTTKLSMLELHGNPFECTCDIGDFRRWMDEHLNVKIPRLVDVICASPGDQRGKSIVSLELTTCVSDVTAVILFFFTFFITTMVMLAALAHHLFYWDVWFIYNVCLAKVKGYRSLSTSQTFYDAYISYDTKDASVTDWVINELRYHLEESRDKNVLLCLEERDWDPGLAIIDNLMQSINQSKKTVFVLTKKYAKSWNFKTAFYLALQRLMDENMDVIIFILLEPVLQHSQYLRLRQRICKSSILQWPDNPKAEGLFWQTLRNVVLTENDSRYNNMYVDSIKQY
Nature of the data set: Agonist activity at human TLR8 expressed in HEK293 cells by reporter gene assay. On the technique in general: A reporter such as luciferase makes a cellular process visible.

Data set [7] in a line: Oral bioavailability in rat. It counts as ADME, organism-based. The following applies: in vivo.
The nature of data set [8]: Half life in rat. In kind it is ADME. The following applies: in vivo.

Programmed cell death protein 1/Programmed cell death 1 ligand 1, sequence (Q15116 whole entry): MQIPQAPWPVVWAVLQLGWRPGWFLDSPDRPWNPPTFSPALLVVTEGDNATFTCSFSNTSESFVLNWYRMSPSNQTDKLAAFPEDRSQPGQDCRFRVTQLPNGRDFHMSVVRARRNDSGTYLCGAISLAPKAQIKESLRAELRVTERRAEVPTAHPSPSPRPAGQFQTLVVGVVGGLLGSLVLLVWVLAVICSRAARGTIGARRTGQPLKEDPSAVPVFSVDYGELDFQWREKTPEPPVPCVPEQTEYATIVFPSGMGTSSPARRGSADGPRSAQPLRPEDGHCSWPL
Programmed cell death protein 1/Programmed cell death 1 ligand 1, sequence (Q9NZQ7 whole entry): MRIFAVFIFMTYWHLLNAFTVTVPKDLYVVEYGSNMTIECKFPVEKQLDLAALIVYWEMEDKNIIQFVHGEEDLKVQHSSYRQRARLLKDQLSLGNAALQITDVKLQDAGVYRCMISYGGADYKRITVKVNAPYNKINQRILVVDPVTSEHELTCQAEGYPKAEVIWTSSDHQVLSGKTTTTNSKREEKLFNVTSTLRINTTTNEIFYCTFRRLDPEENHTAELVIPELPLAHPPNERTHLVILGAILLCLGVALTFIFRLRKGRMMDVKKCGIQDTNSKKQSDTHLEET
Indoleamine 2,3-dioxygenase 1, sequence (P14902 whole entry): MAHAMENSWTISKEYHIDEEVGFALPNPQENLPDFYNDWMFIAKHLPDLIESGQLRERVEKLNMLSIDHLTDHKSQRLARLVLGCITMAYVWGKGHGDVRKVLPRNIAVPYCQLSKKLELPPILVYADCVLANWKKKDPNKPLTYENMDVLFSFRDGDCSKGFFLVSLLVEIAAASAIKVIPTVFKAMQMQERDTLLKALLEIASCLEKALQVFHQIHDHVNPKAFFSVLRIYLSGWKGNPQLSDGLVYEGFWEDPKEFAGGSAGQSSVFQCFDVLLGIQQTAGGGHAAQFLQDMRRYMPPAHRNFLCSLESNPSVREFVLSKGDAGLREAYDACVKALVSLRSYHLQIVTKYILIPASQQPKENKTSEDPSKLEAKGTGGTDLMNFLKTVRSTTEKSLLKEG
C-X-C chemokine receptor type 4, sequence (P61073 whole entry): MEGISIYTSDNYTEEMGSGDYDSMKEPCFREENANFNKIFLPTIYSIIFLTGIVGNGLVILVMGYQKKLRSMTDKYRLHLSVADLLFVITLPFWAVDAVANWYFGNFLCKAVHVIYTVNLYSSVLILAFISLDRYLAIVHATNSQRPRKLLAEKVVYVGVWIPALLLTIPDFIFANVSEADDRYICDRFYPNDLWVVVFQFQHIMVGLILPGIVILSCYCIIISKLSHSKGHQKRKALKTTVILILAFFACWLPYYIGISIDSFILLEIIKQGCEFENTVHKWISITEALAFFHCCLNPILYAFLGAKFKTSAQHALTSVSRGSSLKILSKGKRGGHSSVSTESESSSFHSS

By Ki is commonly meant the equilibrium dissociation constant of an inhibitor or competing ligand from its target. For `N[C@@H](CSCCB(O)O)C(=O)O`, the Ki in data set [1] was found to be 310 nM.

Broadly, the IC50 is the concentration needed to halve the response being measured. Take `C[C@@]12CCCCC1=C(O)C(=O)c1cc3c(cc12)C(=O)C1=C(C3=O)S(=O)(=O)CCN1`: in [2], inhibition was half-maximal at 110 nM (IC50).

In the case of `NC(=O)C[C@H](N)c1nc([C@@H](N)CO)no1`, the Activity with Splenocyte stood at 48.4%.

Consider `Cc1c(Nc2cccc3cc(CNCCO)cnc23)cccc1-c1ccccc1`, for which the IC50 in data set [3] is < 10 nM.

For `COc1cc(/C=N/c2nc(-c3cc4ccccc4oc3=O)cs2)cc(OC)c1OC`, the IC50 in data set [4] came to 50 nM.

As to `CN[C@@H](CO)C(=O)N1C[C@H](CCCB(O)O)[C@](N)(C(=O)O)C1`, half-maximal inhibition on Arginase-1 (IC50) required 740 nM.

A word on the EC50: it is the midpoint of the concentration-response curve. `CCN(CC)CCCC(C)Nc1ccnc2cc(Cl)ccc12` (configuration not stated) [CHLOROQUINE]: the IC50 in the data set on MIA PaCa-2 is 3500 nM. Also, the EC50 in data set [5] turned out to be 6500 nM.

A word on the half-life: it is the time needed for the level to fall by half in the phase considered. Take `Cn1cc(C[C@@H](N)C(=O)O)c2ccccc21` [INDOXIMOD]: the half-life in data set [6] is 10.5 h.

Regarding `CCCN(CCC)C(=O)C1=Cc2ccc(-c3ccc(C(=O)N4CCCC4)cc3)cc2N=C(N)C1` [MOTOLIMOD], at Toll-like receptor 8, the EC50 came to 100 nM.

As usually defined, the bioavailability is dose-corrected exposure relative to a reference, in per cent. In data set [7], `N=C(NO)NCC[C@H](N)C(=O)O` [NOR-NOHA] yielded a bioavailability of 100%. This compound also had a half-life in data set [8] of 0.25 h.
